Reference: patent US20240101599A1, “PEPTIDE, CELL GROWTH PROMOTER, PROTEIN PRODUCTION PROMOTER, CULTURE MEDIUM, CELL GROWTH METHOD USING PEPTIDE, AND PROTEIN PRODUCTION METHOD USING PEPTIDE” (Maruhachi Muramatsu, Inc., priority 2020, published 2024)
Where two headings read alike, the source gives them in different places. Peptide text beside a SMILES is read from it.

Experiments:
CHO DP-12 [1] = assay: Cell growth test and protein production test when peptide was added to total synthesis medium; type: cell-based; settings: for Viability, Average / Viable cell count, Average / Amount of protein produced, Average: average n=3; for Viability, Average / Viable cell count, Average / Amount of protein produced, Average / Viability, 1 / Viable cell count, 1 / Amount of protein produced, 1 / Viability, 2 / Viable cell count, 2 / Amount of protein produced, 2 / Viability, 3 / Viable cell count, 3 / Amount of protein produced, 3: ASF104 basal medium, 5 days; for Amount of protein produced, Average / Amount of protein produced, 1 / Amount of protein produced, 2 / Amount of protein produced, 3: ELISA; for Viability, 1 / Viable cell count, 1 / Amount of protein produced, 1: replicate 1; for Viability, 2 / Viable cell count, 2 / Amount of protein produced, 2: replicate 2; for Viability, 3 / Viable cell count, 3 / Amount of protein produced, 3: replicate 3
Procedure: A peptide having the sequence of Gly-Glu-Lys (GEK) was synthesized to prepare peptide solutions at the concentrations of 0 mM, 2.6 mM, 5.1 mM, 10 mM, 20.5 mM, and 41 mM, and an amount of 1/10 of the total culture medium volume was added to each well immediately before the cell culture test such that final concentrations were 0 mM, 0.26 mM, 0.51 mM, 1.0 mM, 2.05 mM, and 4.1 mM, respectively. In the present test, CHO DP-12 (ATCC, Cat. No. CRL-12445) acclimated to an ASF104 basal medium in which 200 nM of methotrexate and 2 μg/mL of insulin were blended in an ASF104 culture medium (Ajinomoto Co., Inc.), which is a total synthesis medium for CHO, was used. A cell suspension prepared such that a cell concentration was 4×10^4 cells/mL was seeded in a 24-well plate at 450 μL/well and cultured in an incubator at 37° C. and 5% CO2 for 24 hours. As a culture medium, an ASF104 basal medium in which 200 nM of methotrexate and 2 μg/mL of insulin were blended in an ASF104 culture medium (Ajinomoto Co., Inc.), which is a total synthesis medium for CHO, was used.
After 24 hours, 50 μL of the prepared peptide solution was added to each well to perform culture for 5 days. The cells were recovered after culture to count the viable cell count.
• ASF104 basal medium • GEK (0.26 mM)+ASF104 basal medium • GEK (0.51 mM)+ASF104 basal medium • GEK (1.0 mM)+ASF104 basal medium • GEK (2.05 mM)+ASF104 basal medium • GEK (4.1 mM)+ASF104 basal medium
100 μL of the culture medium supernatant was collected in a 1.5 mL tube to quantitatively determine the amount of protein produced. The supernatant was diluted to measure the amount of protein produced by ELISA.
In order to analyze the cells, the culture medium in each well was recovered in a 1.5 mL tube to be rinsed with 200 μL of PBS, and the rinsed liquid was also recovered in the same 1.5 mL tube. Thereafter, 100 μL of 0.25% trypsin/EDTA was added to perform incubation for 1 minute. 100 μL of a trypsin inhibitor was added to recover in the same 1.5 mL tube. After rinsing with 200 μL of PBS to recover the rinsed liquid in the same 1.5 mL tube, a centrifugation operation was performed. Suspension was performed in 100 μL of PBS to measure the viable cell count and the cell viability by a trypan blue staining method using a cell counter.
The above preparation, culture, and measurement were performed with n=3. Table 28 and FIG. 27 show the viable cell count in each peptide solution, Table 29 and FIG. 28 show the cell viability in each peptide solution, and Table 30 and FIG. 29 show the amount of protein produced.

CHO DP-12 [2] = settings: 5 days; for Viable cell count: n=3; for Amount of protein produced: n=3, ELISA
Procedure: A cell suspension prepared such that CHO DP-12 (ATCC, Cat. No. CRL-12445) was at 2×10^4 cells/mL was seeded in a 24-well plate at 1×10^4 cells/well (500 μL) and cultured in an incubator at 37° C. and 5% CO2 for 24 hours. As a culture medium, a DMEM basal medium in which 200 nM of methotrexate and 2 μg/mL of insulin were blended in a DMEM culture medium (Gibco) containing 10% FBS was used.
After removing the culture medium from each well and washing with the DMEM basal medium (500 μL), each peptide solution (500 μL) was dispensed to each well (total 500 μL/well) to perform culture for 5 days.
After replacing each culture medium with an evaluation medium of the following test section, culture was performed in an incubator at 37° C. and 5% CO2 for 5 days.
• DMEM basal medium • AGK (1 mM)+DMEM basal medium • AGK (2 mM)+DMEM basal medium • Medium supplemented with vitamins and nucleic acids (DMEM basal medium+vitamin+nucleic acid) • AGK (1 mM)+medium supplemented with vitamins and nucleic acids • AGK (2 mM)+medium supplemented with vitamins and nucleic acids
After 5 days of culture, the total amount of the culture medium in each well of the 24-well plate was recovered, a centrifugation operation (5,000 rpm, for 5 minutes) was performed, and the supernatant was separately recovered to measure the amount of produced protein by ELISA.
The cells adhered to the wells after recovering the culture medium were detached by trypsin treatment and suspended again in the DMEM basal medium containing 10% FBS to measure the viable cell count and the viability by a trypan blue staining method using a cell counter.

[3] = 1 mM AGK + medium supplemented with vitamins and nucleic acids
[4] = 2 mM AGK + medium supplemented with vitamins and nucleic acids

## NCCCC[C@H](NC(=O)[C@H](CCC(=O)O)NC(=O)CN)C(=O)O [GEK, Gly-Glu-Lys] (H-Gly-Glu-Lys-OH; N-terminus and C-terminus assumed)
CHO DP-12 [1]; 0.26 mM GEK
  Viability, Average: 97.0%
  Viable cell count, Average: 1.6 ×10^6 cells/well
  Amount of protein produced, Average: 12.5 mg/L
  Viability, 1: 96%
  Viable cell count, 1: 1.6 ×10^6 cells/well
  Amount of protein produced, 1: 12.2 mg/L
  Viability, 2: 99%
  Viable cell count, 2: 1.5 ×10^6 cells/well
  Amount of protein produced, 2: 12.6 mg/L
  Viability, 3: 96%
  Viable cell count, 3: 1.6 ×10^6 cells/well
  Amount of protein produced, 3: 12.7 mg/L
CHO DP-12 [1]; 0.51 mM GEK
  Viability, Average: 96.7%
  Viable cell count, Average: 1.6 ×10^6 cells/well
  Amount of protein produced, Average: 12.9 mg/L
  Viability, 1: 95%
  Viable cell count, 1: 1.5 ×10^6 cells/well
  Amount of protein produced, 1: 12.8 mg/L
  Viability, 2: 98%
  Viable cell count, 2: 1.7 ×10^6 cells/well
  Amount of protein produced, 2: 13.2 mg/L
  Viability, 3: 97%
  Viable cell count, 3: 1.6 ×10^6 cells/well
  Amount of protein produced, 3: 12.6 mg/L
CHO DP-12 [1]; 1.0 mM GEK
  Viability, Average: 96.7%
  Viable cell count, Average: 1.5 ×10^6 cells/well
  Amount of protein produced, Average: 13.1 mg/L
  Viability, 1: 97%
  Viable cell count, 1: 1.3 ×10^6 cells/well
  Amount of protein produced, 1: 12.4 mg/L
  Viability, 2: 97%
  Viable cell count, 2: 1.8 ×10^6 cells/well
  Amount of protein produced, 2: 12.8 mg/L
  Viability, 3: 96%
  Viable cell count, 3: 1.4 ×10^6 cells/well
  Amount of protein produced, 3: 14.1 mg/L
CHO DP-12 [1]; 2.05 mM GEK
  Viability, Average: 96.7%
  Viable cell count, Average: 1.9 ×10^6 cells/well
  Amount of protein produced, Average: 17.0 mg/L
  Viability, 1: 96%
  Viable cell count, 1: 1.9 ×10^6 cells/well
  Amount of protein produced, 1: 17.5 mg/L
  Viability, 2: 96%
  Viable cell count, 2: 2.2 ×10^6 cells/well
  Amount of protein produced, 2: 17.7 mg/L
  Viability, 3: 98%
  Viable cell count, 3: 1.4 ×10^6 cells/well
  Amount of protein produced, 3: 15.6 mg/L
CHO DP-12 [1]; 4.1 mM GEK
  Viability, Average: 97.0%
  Viable cell count, Average: 1.7 ×10^6 cells/well
  Amount of protein produced, Average: 13.3 mg/L
  Viability, 1: 97%
  Viable cell count, 1: 1.8 ×10^6 cells/well
  Amount of protein produced, 1: 13.9 mg/L
  Viability, 2: 98%
  Viable cell count, 2: 1.8 ×10^6 cells/well
  Amount of protein produced, 2: 13.2 mg/L
  Viability, 3: 96%
  Viable cell count, 3: 1.5 ×10^6 cells/well
  Amount of protein produced, 3: 12.8 mg/L
CHO DP-12 [1]; in words
  amount of protein produced as compared to the basal medium (total synthesis medium): the amount of protein produced also tended to increase
  cell viability as compared to the basal medium (total synthesis medium): the cell viability was similarly high
  viable cell count as compared to the basal medium (total synthesis medium): the viable cell count increased

## C[C@H](N)C(=O)NCC(=O)N[C@@H](CCCCN)C(=O)O [AGK, Ala-Gly-Lys] (H-Ala-Gly-Lys-OH; N-terminus and C-terminus assumed)
CHO DP-12 [2]; 1 mM AGK + DMEM basal medium
  Viable cell count: 11.97 ×10^4cells/well
  Amount of protein produced: 7.5 mg/L
CHO DP-12 [2]; [3]
  Viable cell count: 34.65 ×10^4cells/well
  Amount of protein produced: 15.74 mg/L
CHO DP-12 [2]; 2 mM AGK + DMEM basal medium
  Viable cell count: 11.73 ×10^4cells/well
  Amount of protein produced: 7.4 mg/L
CHO DP-12 [2]; [4]
  Viable cell count: 47.07 ×10^4cells/well
  Amount of protein produced: 14.34 mg/L
